One test addresses T1, Carbonic anhydrase 4 (Bos taurus, UniProt Q95323).
T1 sequence (Q95323 whole entry): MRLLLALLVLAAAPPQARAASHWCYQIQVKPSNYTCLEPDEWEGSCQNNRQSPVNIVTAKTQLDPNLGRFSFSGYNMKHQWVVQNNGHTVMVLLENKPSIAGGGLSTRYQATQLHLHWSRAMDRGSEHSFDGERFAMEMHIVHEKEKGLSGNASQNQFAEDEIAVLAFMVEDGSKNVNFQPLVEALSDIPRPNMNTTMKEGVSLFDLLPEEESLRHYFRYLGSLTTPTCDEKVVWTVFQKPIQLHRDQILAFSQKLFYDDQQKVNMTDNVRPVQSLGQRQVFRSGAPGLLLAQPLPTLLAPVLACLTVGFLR

A further test concerns the target Carbonic anhydrase 1 (Homo sapiens, UniProt P00915).

Sequence of Carbonic anhydrase 1 (P00915 whole entry): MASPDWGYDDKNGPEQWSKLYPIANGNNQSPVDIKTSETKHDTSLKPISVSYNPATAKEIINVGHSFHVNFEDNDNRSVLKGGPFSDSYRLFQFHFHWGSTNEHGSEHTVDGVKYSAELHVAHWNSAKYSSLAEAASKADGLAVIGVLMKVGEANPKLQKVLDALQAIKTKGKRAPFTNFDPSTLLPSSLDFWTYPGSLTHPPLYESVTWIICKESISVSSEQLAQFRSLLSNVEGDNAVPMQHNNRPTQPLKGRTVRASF
Description for Carbonic anhydrase 1: Inhibition of human recombinant carbonic anhydrase I (CA1)
Description for Carbonic anhydrase 4: Inhibition of bovine carbonic anhydrase IV (CA4) from bovine lung microsomes

As a reminder, the Ki is the equilibrium dissociation constant of an inhibitor or competing ligand from its target. The low end stands for a stronger hold on the target, the high end for a looser hold on the target. On to `NS(=O)(=O)c1ccc(COC(=O)C(F)(F)C(F)(F)C(F)(F)C(F)(F)C(F)(F)C(F)(F)C(F)(F)C(F)(F)F)cc1`, for which the Ki at Carbonic anhydrase 4 came to 11000 nM; at Carbonic anhydrase 1 it was 15000 nM.
For `NS(=O)(=O)c1ccc(CCNS(=O)(=O)C(F)(F)F)cc1`, in that order: 50000 nM and 81300 nM.
For `NS(=O)(=O)c1cccc(NS(=O)(=O)c2ccc(NS(=O)(=O)C(F)(F)C(F)(F)C(F)(F)C(F)(F)F)cc2)c1`, in that order: 36 nM and 4000 nM.
`NS(=O)(=O)c1ccc(NNS(=O)(=O)C(F)(F)C(F)(F)C(F)(F)C(F)(F)F)cc1`: the Ki stood at 600 nM on Carbonic anhydrase 4 and 15000 nM on Carbonic anhydrase 1.
For `NS(=O)(=O)c1ccc(COS(=O)(=O)c2c(F)c(F)c(F)c(F)c2F)cc1`, in that order: 100 nM and 290 nM.
Taken in the same sequence, the figures for `NS(=O)(=O)c1nnc(NC(=O)C(F)(F)C(F)(F)C(F)(F)C(F)(F)C(F)(F)C(F)(F)C(F)(F)C(F)(F)F)s1` were 13 nM and 300 nM.
As for `NS(=O)(=O)c1cccc(NS(=O)(=O)c2ccc(NC(=O)c3c(F)c(F)c(F)c(F)c3F)cc2)c1`, the inhibition constant Ki at Carbonic anhydrase 4 was 55 nM; on Carbonic anhydrase 1, 8000 nM.
Turning to `NS(=O)(=O)c1nc2ccc(OC(=O)c3c(F)c(F)c(F)c(F)c3F)cc2s1`, the inhibition constant Ki at Carbonic anhydrase 4 was 9 nM; at Carbonic anhydrase 1, 105 nM.
For `NS(=O)(=O)c1cc(S(N)(=O)=O)c(NS(=O)(=O)C(F)(F)F)cc1Cl`, in that order: 150 nM and 550 nM.
For `NS(=O)(=O)c1nc2ccc(OCCOS(=O)(=O)C(F)(F)F)cc2s1`, the inhibition constant Ki on Carbonic anhydrase 4 was 7 nM; on Carbonic anhydrase 1 it was 50 nM.
For `NS(=O)(=O)c1ccc(NS(=O)(=O)C(F)(F)C(F)(F)C(F)(F)C(F)(F)F)cc1`, in that order: 480 nM and 15200 nM.
On to `NS(=O)(=O)c1ccc(NC(=O)c2c(F)c(F)c(F)c(F)c2F)c(Cl)c1`, for which the values for the Ki on Carbonic anhydrase 4 and on Carbonic anhydrase 1 were 590 nM and 1080 nM, respectively.
Consider `NS(=O)(=O)c1ccc(Nc2ccnc(NC(=O)c3c(F)c(F)c(F)c(F)c3F)n2)cc1`, for which the Ki on Carbonic anhydrase 4 amounted to 62 nM; at Carbonic anhydrase 1 it was 7700 nM.
Taken in the same sequence, the figures for `NS(=O)(=O)c1nnc(NS(=O)(=O)C(F)(F)C(F)(F)C(F)(F)C(F)(F)C(F)(F)C(F)(F)C(F)(F)C(F)(F)F)s1` were 12 nM and 400 nM.
On to `NS(=O)(=O)c1nnc(NS(=O)(=O)c2ccc(NS(=O)(=O)c3c(F)c(F)c(F)c(F)c3F)cc2)s1`, for which the Ki at Carbonic anhydrase 4 turned out to be 8 nM; on Carbonic anhydrase 1, 24 nM.
`Cn1nc(S(N)(=O)=O)sc1=NS(=O)(=O)C(F)(F)C(F)(F)C(F)(F)C(F)(F)F`: the values for the Ki at Carbonic anhydrase 4 and on Carbonic anhydrase 1 were 10 nM and 350 nM, respectively.
Consider `NS(=O)(=O)c1ccccc1NS(=O)(=O)C(F)(F)F`, for which the values for the Ki at Carbonic anhydrase 4 and on Carbonic anhydrase 1 were 97000 nM and 175000 nM, respectively.
With `NS(=O)(=O)c1ccc(NNS(=O)(=O)C(F)(F)F)cc1`, the values for the Ki on Carbonic anhydrase 4 and on Carbonic anhydrase 1 were 60800 nM and 156000 nM, respectively.
As for `NS(=O)(=O)c1ccc(NS(=O)(=O)C(F)(F)F)cc1`, the inhibition constant Ki on Carbonic anhydrase 4 was 64600 nM; on Carbonic anhydrase 1, 166000 nM.
For the molecule `NS(=O)(=O)c1ccc(NS(=O)(=O)C(F)(F)C(F)(F)C(F)(F)C(F)(F)F)c(Cl)c1`, the Ki at Carbonic anhydrase 4 was determined as 880 nM; at Carbonic anhydrase 1 it was 10200 nM.
For `NS(=O)(=O)c1ccc(NC(=O)C(F)(F)C(F)(F)C(F)(F)C(F)(F)C(F)(F)C(F)(F)C(F)(F)C(F)(F)F)c(Cl)c1`, in that order: 600 nM and 2300 nM.
For `Cn1nc(S(N)(=O)=O)s/c1=N/S(=O)(=O)c1ccc(NS(=O)(=O)C(F)(F)C(F)(F)C(F)(F)C(F)(F)F)cc1`, in that order: 24 nM and 1000 nM.
Taken in the same sequence, the figures for `NS(=O)(=O)c1ccc(NS(=O)(=O)c2c(F)c(F)c(F)c(F)c2F)c(I)c1` were 675 nM and 1760 nM.
As for `NS(=O)(=O)c1ccc(NS(=O)(=O)C(F)(F)C(F)(F)C(F)(F)C(F)(F)F)c(I)c1`, the Ki at Carbonic anhydrase 4 was determined as 1040 nM; at Carbonic anhydrase 1, 23400 nM.
Turning to `NS(=O)(=O)c1cccc(NC(=O)C(F)(F)C(F)(F)C(F)(F)C(F)(F)C(F)(F)C(F)(F)C(F)(F)C(F)(F)F)c1`, the Ki was 935 nM on Carbonic anhydrase 4 and 1600 nM on Carbonic anhydrase 1.
Turning to `NS(=O)(=O)c1ccc(NNS(=O)(=O)c2c(F)c(F)c(F)c(F)c2F)cc1`, the Ki on Carbonic anhydrase 4 was found to be 500 nM; at Carbonic anhydrase 1, 1000 nM.
For `NS(=O)(=O)c1nc2ccc(NS(=O)(=O)C(F)(F)C(F)(F)C(F)(F)C(F)(F)F)cc2s1`, in that order: 6 nM and 54 nM.
For the molecule `Cn1nc(S(N)(=O)=O)s/c1=N/S(=O)(=O)c1ccc(NS(=O)(=O)C(F)(F)C(F)(F)C(F)(F)C(F)(F)C(F)(F)C(F)(F)C(F)(F)C(F)(F)F)cc1`, the results for the Ki at Carbonic anhydrase 4 and on Carbonic anhydrase 1 were 25 nM and 1100 nM, respectively.
Take `NS(=O)(=O)c1nc2ccc(OS(=O)(=O)C(F)(F)C(F)(F)C(F)(F)C(F)(F)F)cc2s1`: the values for the Ki at Carbonic anhydrase 4 and at Carbonic anhydrase 1 were 7 nM and 29 nM, respectively.
Taken in the same sequence, the figures for `NS(=O)(=O)c1cc(S(N)(=O)=O)c(NS(=O)(=O)C(F)(F)F)c(Cl)c1Cl` were 725 nM and 5500 nM.
For `NS(=O)(=O)c1ccc(COS(=O)(=O)C(F)(F)F)cc1`, the inhibition constant Ki was found to be 24100 nM on Carbonic anhydrase 4 and 135000 nM at Carbonic anhydrase 1.
As to `NS(=O)(=O)c1ccc(CCNC(=O)C(F)(F)C(F)(F)C(F)(F)C(F)(F)C(F)(F)C(F)(F)C(F)(F)C(F)(F)F)cc1`, the Ki on Carbonic anhydrase 4 amounted to 520 nM; on Carbonic anhydrase 1, 950 nM.
Taken in the same sequence, the figures for `NS(=O)(=O)c1ccc(CNS(=O)(=O)c2c(F)c(F)c(F)c(F)c2F)cc1` were 240 nM and 790 nM.
For `NS(=O)(=O)c1cc(S(N)(=O)=O)c(NS(=O)(=O)C(F)(F)C(F)(F)C(F)(F)C(F)(F)F)c(Cl)c1Cl`, in that order: 160 nM and 5100 nM.
With `NS(=O)(=O)c1ccc(NNC(=O)c2c(F)c(F)c(F)c(F)c2F)cc1`, the Ki on Carbonic anhydrase 4 worked out at 980 nM; on Carbonic anhydrase 1, 1500 nM.
Regarding `NS(=O)(=O)c1nc2ccc(OC(=O)C(F)(F)C(F)(F)C(F)(F)C(F)(F)C(F)(F)C(F)(F)C(F)(F)C(F)(F)F)cc2s1`, the Ki at Carbonic anhydrase 4 was determined as 14 nM; on Carbonic anhydrase 1, 37 nM.
For `NS(=O)(=O)c1ccc(NC(=O)c2c(F)c(F)c(F)c(F)c2F)c(I)c1`, in that order: 1040 nM and 2560 nM.
Taken in the same sequence, the figures for `NS(=O)(=O)c1cc(S(N)(=O)=O)c(NS(=O)(=O)C(F)(F)C(F)(F)C(F)(F)C(F)(F)F)cc1Cl` were 43 nM and 400 nM.
For `NS(=O)(=O)c1cccc(NS(=O)(=O)c2ccc(NS(=O)(=O)C(F)(F)F)cc2)c1`, in that order: 45 nM and 5000 nM.
For `NS(=O)(=O)c1nnc(NC(=O)CCNC(=O)C(F)(F)C(F)(F)C(F)(F)C(F)(F)C(F)(F)C(F)(F)C(F)(F)C(F)(F)F)s1`, the Ki was found to be 8 nM at Carbonic anhydrase 4 and 300 nM at Carbonic anhydrase 1.
Take `NS(=O)(=O)c1cccc(NS(=O)(=O)c2c(F)c(F)c(F)c(F)c2F)c1`: the Ki was determined as 500 nM on Carbonic anhydrase 4 and 1100 nM on Carbonic anhydrase 1.
Taken in the same sequence, the figures for `NS(=O)(=O)c1cc(S(N)(=O)=O)c(NC(=O)C(F)(F)C(F)(F)C(F)(F)C(F)(F)C(F)(F)C(F)(F)C(F)(F)C(F)(F)F)cc1Cl` were 130 nM and 810 nM.
With `NS(=O)(=O)c1cc(S(N)(=O)=O)c(NS(=O)(=O)c2c(F)c(F)c(F)c(F)c2F)cc1Cl`, the inhibition constant Ki at Carbonic anhydrase 4 was found to be 26 nM; on Carbonic anhydrase 1, 300 nM.
Turning to `NS(=O)(=O)c1ccc(NS(=O)(=O)c2c(F)c(F)c(F)c(F)c2F)c(Cl)c1`, the inhibition constant Ki at Carbonic anhydrase 4 was 540 nM; at Carbonic anhydrase 1, 1450 nM.
As to `NS(=O)(=O)c1cc(S(N)(=O)=O)c(NS(=O)(=O)c2c(F)c(F)c(F)c(F)c2F)c(Cl)c1Cl`, the Ki was 142 nM on Carbonic anhydrase 4 and 1500 nM at Carbonic anhydrase 1.
For the molecule `NS(=O)(=O)c1nc2ccc(NC(=O)c3c(F)c(F)c(F)c(F)c3F)cc2s1`, the inhibition constant (Ki) on Carbonic anhydrase 4 came to 8 nM; on Carbonic anhydrase 1, 120 nM.
With `NS(=O)(=O)c1ccc(Nc2ccnc(NS(=O)(=O)c3c(F)c(F)c(F)c(F)c3F)n2)cc1`, the Ki is 24 nM on Carbonic anhydrase 4 and 325 nM on Carbonic anhydrase 1.
On to `NS(=O)(=O)c1ccc(NS(=O)(=O)c2ccc(NS(=O)(=O)c3c(F)c(F)c(F)c(F)c3F)cc2)cc1`, for which the inhibition constant (Ki) was found to be 15 nM at Carbonic anhydrase 4 and 125 nM on Carbonic anhydrase 1.
Taken in the same sequence, the figures for `NS(=O)(=O)c1nnc(NS(=O)(=O)c2ccc(NS(=O)(=O)C(F)(F)C(F)(F)C(F)(F)C(F)(F)F)cc2)s1` were 17 nM and 900 nM.
Taken in the same sequence, the figures for `NS(=O)(=O)c1ccc(CNC(=O)C(F)(F)C(F)(F)C(F)(F)C(F)(F)C(F)(F)C(F)(F)C(F)(F)C(F)(F)F)cc1` were 750 nM and 1000 nM.
Taken in the same sequence, the figures for `NS(=O)(=O)c1nnc(NC(=O)CCNC(=O)c2c(F)c(F)c(F)c(F)c2F)s1` were 10 nM and 300 nM.
With `NS(=O)(=O)c1ccc(CCOC(=O)c2c(F)c(F)c(F)c(F)c2F)cc1`, the inhibitory constant (Ki) at Carbonic anhydrase 4 was 400 nM; on Carbonic anhydrase 1 it was 1250 nM.
With `NS(=O)(=O)c1ccc(CNC(=O)c2c(F)c(F)c(F)c(F)c2F)cc1`, the results for the inhibition constant (Ki) on Carbonic anhydrase 4 and at Carbonic anhydrase 1 were 350 nM and 980 nM, respectively.
Taken in the same sequence, the figures for `NS(=O)(=O)c1ccc(NS(=O)(=O)C(F)(F)C(F)(F)C(F)(F)C(F)(F)C(F)(F)C(F)(F)C(F)(F)C(F)(F)F)c(F)c1` were 500 nM and 1450 nM.
`NS(=O)(=O)c1ccccc1NS(=O)(=O)C(F)(F)C(F)(F)C(F)(F)C(F)(F)C(F)(F)C(F)(F)C(F)(F)C(F)(F)F`: the Ki is 1200 nM on Carbonic anhydrase 4 and 1500 nM on Carbonic anhydrase 1.
For `NS(=O)(=O)c1ccc(CCNS(=O)(=O)c2c(F)c(F)c(F)c(F)c2F)cc1`, in that order: 230 nM and 760 nM.
For `Cn1nc(S(N)(=O)=O)s/c1=N/C(=O)c1c(F)c(F)c(F)c(F)c1F`, the Ki worked out at 8 nM at Carbonic anhydrase 4 and 270 nM on Carbonic anhydrase 1.

Values taken from ChEMBL document CHEMBL1133531, “Carbonic anhydrase inhibitors: perfluoroalkyl/aryl-substituted derivatives of aromatic/heterocyclic sulfonamides as topical intraocular pressure-lowering agents with prolonged duration of action” (J Med Chem, 2000).
